# Assay results reported in patent publication US20260034123A1 (Cedilla Therapeutics, Inc., priority 2022, published 2026).
# Values joined by “and” are separate entries in the source; they are usually repeats but may differ in a detail not shown here. Equal values may be shown once.
# Tests used:
# CDK2/Cyclin E1 [1] = target: T1, CDK2/Cyclin E1 (Homo sapiens, UniProt P24941); test: Caliper LabChip EZ Reader mobility shift assay; assay type: biochemical; conditions: 2.5 nM CDK2/Cyclin E1(14-475), 100 μM ATP, 30 min preincubation; read-out: Caliper Assay (CDK2/CCNE1): IC50
# Method in brief: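 Mobility-shift assay with CDK2/Cyclin E1(14-475) at 2.5 nM, 100 μM ATP and 1.5 μM 5-FAM-QSPKKG-CONH2 in HEPES pH 7.5 buffer with 0.1% DMSO. Compounds were preincubated with enzyme and ATP for 30 min, the reaction ran 100 min and was stopped with EDTA. IC50 came from a four-parameter fit of normalized conversion ratio.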
# CDK2/Cyclin E1 [2] = target: T1, CDK2/Cyclin E1; test: ADP-Glo Luminescent Kinase Assay (CDK2/E1-37C); assay type: biochemical; conditions: 0.18 nM CDK2/Cyclin E1, 100 μM ATP, Histone H1, 37° C.; read-out: ADPGLO (CDK2/E1-37C): IC50
# Method in brief: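 IC50 fitted by four-parameter equation from ADP-Glo luminescence converted to % activity. Compounds were preincubated 60 min at 37 °C with enzyme, then kinase reaction ran 90 min at 37 °C with 0.18 nM enzyme, 100 μM ATP, Histone H1 ([…]), pH 7.5 HEPES, Mg2+, DTT.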
# Kuramochi cells RB-WT = test: IncuCyte Kuramochi cell proliferation assay, RB-WT; assay type: cell-based; conditions: 72 hours, cell count
# Method in brief: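 GI50 was derived by curve-fitting DMSO-normalized fold change in nuclear count between 0 and 72 h. Counts came from images of Kuramochi cells carrying mApple-H2B. Compounds were dosed over 10 points at 1/2-log spacing from a 20 µM top concentration.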
# [3] = tested on: mouse models of polycystic kidney disease; conditions: Bukanov et al., Nature 2006; cited from earlier work
Structure (SMILES),IC50 (CDK2/Cyclin E1 [1]),IC50 (CDK2/Cyclin E1 [2]) [µM],IC50 (Kuramochi cells RB-WT) [µM],arrest of cystic kidney disease [3]
"CC1(C)C[C@@H]1C(=O)N1CC2(CN(C(=O)c3cncs3)C[C@H]2COCc2ccn(C3CCCC3)n2)C1 [Compound I-38, ((S)-8-(((1-cyclopentyl-1H-pyrazol-3-yl)methoxy)methyl)-2-((S)-2,2-dimethylcyclopropane-1-carbonyl)-2,6-diazaspiro[3.4]octan-6-yl)(thiazol-5-yl)methanone]",0.1 to 1 µM,> 10,> 10,
"CC1(C)C[C@@H]1C(=O)N1CC2(CN(C(=O)c3cncs3)C[C@H]2COCc2cccc(C3CCOCC3)c2)C1 [Compound I-39, ((S)-2-((S)-2,2-dimethylcyclopropane-1-carbonyl)-8-(((3-(tetrahydro-2H-pyran-4-yl)benzyl)oxy)methyl)-2,6-diazaspiro[3.4]octan-6-yl)(thiazol-5-yl)methanone]",0.1 to 1 µM,> 10,> 10,
"CC1(C)C[C@@H]1C(=O)N1CC2(CN(C(=O)c3cncs3)C[C@H]2COCc2cccc(C3CCOCC3)n2)C1 [Compound I-49, (2-((S)-2,2-dimethylcyclopropane-1-carbonyl)-8-(((6-(tetrahydro-2H-pyran-4-yl)pyridin-2-yl)methoxy)methyl)-2,6-diazaspiro[3.4]octan-6-yl)(thiazol-5-yl)methanone]",1 to 10 µM and 0.1 to 1 µM,5 to 10,> 10,
"O=C(O)C(Cc1cccc(-c2ccc(C(F)(F)F)cc2)n1)CC1CN(C(=O)c2cnn(Cc3ccc(C(F)(F)F)cc3)c2)CC12CN(C(=O)C1(C(F)(F)F)CC1)C2 (stereo not shown) [Compound I-50, 2-((6-(1-(4-(trifluoromethyl)benzyl)-1H-pyrazole-4-carbonyl)-2-(1-(trifluoromethyl)cyclopropane-1-carbonyl)-2,6-diazaspiro[3.4]octan-8-yl)methyl)-3-(6-(4-(trifluoromethyl)phenyl)pyridin-2-yl)propanoic acid]",> 10 µM,> 10,> 10,
CC[C@H](CO)Nc1nc(NCc2ccccc2)c2ncn(C(C)C)c2n1 [roscovitine],,,,effective arrest of cystic kidney disease
